How the values were obtained:
Experiment in all cases: Extent of growth, growth curves in BHI
Format in all cases: cell-based
Conditions in all cases: control = 1
Fusobacterium nucleatum = test system: Fusobacterium nucleatum
Procedure: (§1) The extent of growth of the tested bacteria in response to selected compounds (Met-Pro, Phe-Glu) was investigated by setting up growth curves in a nutritionally rich medium (brain heart infusion broth (BHI), Oxoid), over 48 hours. Late exponential growth phase liquid cultures were prepared by transferring the respective bacterium from blood agar plates to BHI and overnight incubation at 37° C. in an anaerobic atmosphere for A. viscosus, V. parvula, F. nucleatum, P. gingivalis, P. intermedia, T. forsythia, A. naeslundii, and C. sputigena, and in a 5% CO2 environment for S. salivarius, S. sanguinis, S. mitis, A. actinomycetemcomitans, S. mutans, S. sobrinus and S. gordonii. Overnight cultures were transferred to BHI and adjusted to a concentration of 1×10^7 CFU/ml (colony forming units per ml) by measuring the optical density at 600 nm (OD600) (BioRad SmartSpec 3000). For each strain, 200 μl of the bacterial suspension was added to a 96-well plate containing 20 μl of the respective di-peptides. Final concentrations of the di-peptides were set to 5, 10, 20 and 25 μmol/ml. […] Plates were incubated as previously described.
(§2) For each combination of bacterium/dipeptide, and for each of their respective controls (i.e. the particular bacterium in the nutritionally rich medium with no dipeptide), the optical density was measured at 630 nm (OD630) at 0 h, 24 h and 48 h (Thermo Scientific Multiskan Ascent). Additionally, the OD630 for combinations of bacterium/dipeptide grown in a 5% CO2 environment were also measured every hour between 0 h and 9 h.
(§3) The experiment was carried out on three different days (thus providing 3 biological replicas) and on each day the experiment was carried out in quadruple (thus providing 4 technical replicas) for each combination of bacterium with dipeptide and for each control. For each day and for each combination, the average (mean) of the values obtained (as detailed above) for the four technical replicas was calculated to provide a single value for each combination on each day. The values shown in Tables 5 to 6, below, are the average (mean) of the three single values obtained for each combination of bacterium with dipeptide.

[1] = test system: Aggregatibacter actinomycetemcomitans
Procedure: as §1, §2, §3

Streptococcus gordonii = test system: Streptococcus gordonii
Procedure: as §1, §2, §3

Tannerella forsythia = test system: Tannerella forsythia
Procedure: as §1, §2, §3

Actinomyces naeslundii = test system: Actinomyces naeslundii
Procedure: as §1, §2, §3

Streptococcus salivarius = test system: Streptococcus salivarius
Procedure: as §1, §2, §3

Actinomyces viscosus = test system: Actinomyces viscosus
Procedure: as §1, §2, §3

Streptococcus mitis = test system: Streptococcus mitis
Procedure: as §1, §2, §3

Prevotella intermedia = test system: Prevotella intermedia
Procedure: as §1, §2, §3

Streptococcus sobrinus = test system: Streptococcus sobrinus
Procedure: as §1, §2, §3

Capnocytophaga sputigena = test system: Capnocytophaga sputigena
Procedure: as §1, §2, §3

Streptococcus sanguinis = test system: Streptococcus sanguinis
Procedure: as §1, §2, §3

Porphyromonas gingivalis = test system: Porphyromonas gingivalis
Procedure: as §1, §2, §3

Veillonella parvula = test system: Veillonella parvula
Procedure: as §1, §2, §3

Streptococcus mutans = test system: Streptococcus mutans
Procedure: as §1, §2, §3

Which “extent of growth: maximal OD630 over 48 hr divided by maximal OD of control” value (Fusobacterium nucleatum; 5 μmol/ml) does the source give for Phe-Glu here?
The value was 0.7990.

What about the “extent of growth: maximal OD630 over 48 hr divided by maximal OD of control” value (Fusobacterium nucleatum; 10 μmol/ml) of the same substance?
Its value is 0.8493.

And the “extent of growth: maximal OD630 over 48 hr divided by maximal OD of control” value (Fusobacterium nucleatum; 20 μmol/ml)?
Its value is 0.2311.

What about the “extent of growth: maximal OD630 over 48 hr divided by maximal OD of control” value (Fusobacterium nucleatum; 25 μmol/ml) of the same substance?
The value was 0.2402.

And the “extent of growth: maximal OD630 over 48 hr divided by maximal OD of control” value ([1]; 5 μmol/ml)?
Its value is 0.5643.

And the “extent of growth: maximal OD630 over 48 hr divided by maximal OD of control” value ([1]; 10 μmol/ml)?
The value was 0.3227.

What about the “extent of growth: maximal OD630 over 48 hr divided by maximal OD of control” value ([1]; 20 μmol/ml) of the same substance?
The value was 0.2201.

And the “extent of growth: maximal OD630 over 48 hr divided by maximal OD of control” value ([1]; 25 μmol/ml)?
Its value is 0.2320.

And the “extent of growth: maximal OD630 over 48 hr divided by maximal OD of control” value (Streptococcus gordonii; 5 μmol/ml)?
Its value is 0.9682.

What about the “extent of growth: maximal OD630 over 48 hr divided by maximal OD of control” value (Streptococcus gordonii; 10 μmol/ml) of the same substance?
Its value is 0.8613.

What about the “extent of growth: maximal OD630 over 48 hr divided by maximal OD of control” value (Streptococcus gordonii; 20 μmol/ml) of the same substance?
The value was 0.3992.

And the “extent of growth: maximal OD630 over 48 hr divided by maximal OD of control” value (Streptococcus gordonii; 25 μmol/ml)?
Its value is 0.2908.

And the “extent of growth: maximal OD630 over 48 hr divided by maximal OD of control” value (Tannerella forsythia; 5 μmol/ml)?
The value was 1.0118.

And the “extent of growth: maximal OD630 over 48 hr divided by maximal OD of control” value (Tannerella forsythia; 10 μmol/ml)?
Its value is 0.7490.

And the “extent of growth: maximal OD630 over 48 hr divided by maximal OD of control” value (Tannerella forsythia; 20 μmol/ml)?
The value was 0.7707.

And the “extent of growth: maximal OD630 over 48 hr divided by maximal OD of control” value (Tannerella forsythia; 25 μmol/ml)?
Its value is 0.8302.

And the “extent of growth: maximal OD630 over 48 hr divided by maximal OD of control” value (Actinomyces naeslundii; 5 μmol/ml)?
The value was 0.7791.

And the “extent of growth: maximal OD630 over 48 hr divided by maximal OD of control” value (Actinomyces naeslundii; 10 μmol/ml)?
Its value is 0.4962.

What about the “extent of growth: maximal OD630 over 48 hr divided by maximal OD of control” value (Actinomyces naeslundii; 20 μmol/ml) of the same substance?
The value was 0.1648.

And the “extent of growth: maximal OD630 over 48 hr divided by maximal OD of control” value (Actinomyces naeslundii; 25 μmol/ml)?
The value was 0.1653.

And the “extent of growth: maximal OD630 over 48 hr divided by maximal OD of control” value (Streptococcus salivarius; 5 μmol/ml)?
The value was 0.9916.

And the “extent of growth: maximal OD630 over 48 hr divided by maximal OD of control” value (Streptococcus salivarius; 10 μmol/ml)?
The value was 0.8123.

What about the “extent of growth: maximal OD630 over 48 hr divided by maximal OD of control” value (Streptococcus salivarius; 20 μmol/ml) of the same substance?
The value was 0.2953.

What about the “extent of growth: maximal OD630 over 48 hr divided by maximal OD of control” value (Streptococcus salivarius; 25 μmol/ml) of the same substance?
The value was 0.2322.

And the “extent of growth: maximal OD630 over 48 hr divided by maximal OD of control” value (Actinomyces viscosus; 5 μmol/ml)?
The value was 0.5112.

What about the “extent of growth: maximal OD630 over 48 hr divided by maximal OD of control” value (Actinomyces viscosus; 10 μmol/ml) of the same substance?
The value was 0.3845.

And the “extent of growth: maximal OD630 over 48 hr divided by maximal OD of control” value (Actinomyces viscosus; 20 μmol/ml)?
The value was 0.1598.

And the “extent of growth: maximal OD630 over 48 hr divided by maximal OD of control” value (Actinomyces viscosus; 25 μmol/ml)?
Its value is 0.1563.

And the “extent of growth: maximal OD630 over 48 hr divided by maximal OD of control” value (Streptococcus mitis; 5 μmol/ml)?
Its value is 1.9957.

What about the “extent of growth: maximal OD630 over 48 hr divided by maximal OD of control” value (Streptococcus mitis; 10 μmol/ml) of the same substance?
Its value is 2.0642.

What about the “extent of growth: maximal OD630 over 48 hr divided by maximal OD of control” value (Streptococcus mitis; 20 μmol/ml) of the same substance?
The value was 0.3250.

And the “extent of growth: maximal OD630 over 48 hr divided by maximal OD of control” value (Streptococcus mitis; 25 μmol/ml)?
Its value is 0.4367.

And the “extent of growth: maximal OD630 over 48 hr divided by maximal OD of control” value (Prevotella intermedia; 5 μmol/ml)?
Its value is 1.1149.

And the “extent of growth: maximal OD630 over 48 hr divided by maximal OD of control” value (Prevotella intermedia; 10 μmol/ml)?
Its value is 0.2856.

What about the “extent of growth: maximal OD630 over 48 hr divided by maximal OD of control” value (Prevotella intermedia; 20 μmol/ml) of the same substance?
Its value is 0.2094.

And the “extent of growth: maximal OD630 over 48 hr divided by maximal OD of control” value (Prevotella intermedia; 25 μmol/ml)?
The value was 0.2224.

And the “extent of growth: maximal OD630 over 48 hr divided by maximal OD of control” value (Streptococcus sobrinus; 5 μmol/ml)?
Its value is 1.0790.

And the “extent of growth: maximal OD630 over 48 hr divided by maximal OD of control” value (Streptococcus sobrinus; 10 μmol/ml)?
The value was 0.9900.

What about the “extent of growth: maximal OD630 over 48 hr divided by maximal OD of control” value (Streptococcus sobrinus; 20 μmol/ml) of the same substance?
Its value is 0.5832.

What about the “extent of growth: maximal OD630 over 48 hr divided by maximal OD of control” value (Streptococcus sobrinus; 25 μmol/ml) of the same substance?
The value was 0.4315.

What about the “extent of growth: maximal OD630 over 48 hr divided by maximal OD of control” value (Capnocytophaga sputigena; 5 μmol/ml) of the same substance?
Its value is 0.9921.

What about the “extent of growth: maximal OD630 over 48 hr divided by maximal OD of control” value (Capnocytophaga sputigena; 10 μmol/ml) of the same substance?
Its value is 0.9872.

What about the “extent of growth: maximal OD630 over 48 hr divided by maximal OD of control” value (Capnocytophaga sputigena; 20 μmol/ml) of the same substance?
Its value is 1.0801.

What about the “extent of growth: maximal OD630 over 48 hr divided by maximal OD of control” value (Capnocytophaga sputigena; 25 μmol/ml) of the same substance?
The value was 1.1804.

What about the “extent of growth: maximal OD630 over 48 hr divided by maximal OD of control” value (Streptococcus sanguinis; 5 μmol/ml) of the same substance?
Its value is 0.8140.

What about the “extent of growth: maximal OD630 over 48 hr divided by maximal OD of control” value (Streptococcus sanguinis; 10 μmol/ml) of the same substance?
The value was 0.5644.

And the “extent of growth: maximal OD630 over 48 hr divided by maximal OD of control” value (Streptococcus sanguinis; 20 μmol/ml)?
Its value is 0.2451.

And the “extent of growth: maximal OD630 over 48 hr divided by maximal OD of control” value (Streptococcus sanguinis; 25 μmol/ml)?
The value was 0.2334.

And the “extent of growth: maximal OD630 over 48 hr divided by maximal OD of control” value (Porphyromonas gingivalis; 5 μmol/ml)?
Its value is 0.8526.

And the “extent of growth: maximal OD630 over 48 hr divided by maximal OD of control” value (Porphyromonas gingivalis; 10 μmol/ml)?
The value was 0.9810.

And the “extent of growth: maximal OD630 over 48 hr divided by maximal OD of control” value (Porphyromonas gingivalis; 20 μmol/ml)?
Its value is 0.4181.

What about the “extent of growth: maximal OD630 over 48 hr divided by maximal OD of control” value (Porphyromonas gingivalis; 25 μmol/ml) of the same substance?
Its value is 0.4208.

What about the “extent of growth: maximal OD630 over 48 hr divided by maximal OD of control” value (Veillonella parvula; 5 μmol/ml) of the same substance?
Its value is 1.0286.

What about the “extent of growth: maximal OD630 over 48 hr divided by maximal OD of control” value (Veillonella parvula; 10 μmol/ml) of the same substance?
The value was 1.0199.

And the “extent of growth: maximal OD630 over 48 hr divided by maximal OD of control” value (Veillonella parvula; 20 μmol/ml)?
The value was 0.9533.

What about the “extent of growth: maximal OD630 over 48 hr divided by maximal OD of control” value (Veillonella parvula; 25 μmol/ml) of the same substance?
The value was 1.0475.

What about the “extent of growth: maximal OD630 over 48 hr divided by maximal OD of control” value (Streptococcus mutans; 5 μmol/ml) of the same substance?
The value was 0.9703.

And the “extent of growth: maximal OD630 over 48 hr divided by maximal OD of control” value (Streptococcus mutans; 10 μmol/ml)?
Its value is 0.9003.

What about the “extent of growth: maximal OD630 over 48 hr divided by maximal OD of control” value (Streptococcus mutans; 20 μmol/ml) of the same substance?
The value was 0.4212.

What about the “extent of growth: maximal OD630 over 48 hr divided by maximal OD of control” value (Streptococcus mutans; 25 μmol/ml) of the same substance?
Its value is 0.2492.
